# Results as given in ChEMBL document CHEMBL1201861, “Genomics of Drug Sensitity in Cancer screening data, Wellcome Trust Sanger Institute”.
# What was measured:
# Experiment in all cases: cells
# [1] = tested on: COLO-792; format: functional, cell-based, Homo sapiens; conditions: Homo sapiens, COLO-792
# Description: SANGER: Inhibition of human COLO-792 cell growth in a cell viability assay.
# [2] = tested on: CPC-N; format: functional, cell-based, Homo sapiens; conditions: Homo sapiens, CPC-N;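 also: growth inhibition of CPC-N cells, with a cell viability assay as the readout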
# Description: SANGER: Inhibition of human CPC-N cell growth in a cell viability assay.
# [3] = tested on: Daoy; format: functional, cell-based, Homo sapiens; conditions: Homo sapiens, Daoy;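 also: daoy cell growth inhibition, read out as cell viability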
# Description: SANGER: Inhibition of human Daoy cell growth in a cell viability assay.
# [4] = tested on: Detroit 562; format: functional, cell-based, Homo sapiens; conditions: Homo sapiens, Detroit 562;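 also: growth inhibition of human Detroit 562 cells, read out by a cell viability assay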
# Description: SANGER: Inhibition of human Detroit562 cell growth in a cell viability assay.
# [5] = tested on: EGI-1; format: functional, cell-based, Homo sapiens; conditions: Homo sapiens, EGI-1;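 also: cell viability readout used to gauge growth inhibition of EGI-1 cells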
# Description: SANGER: Inhibition of human EGI-1 cell growth in a cell viability assay.
# [6] = tested on: HT1197; format: functional, cell-based, Homo sapiens, HT-1197; conditions: Homo sapiens, HT1197
# Description: SANGER: Inhibition of human HT-1197 cell growth in a cell viability assay.
# [7] = tested on: HT-1376; format: functional, cell-based, Homo sapiens; conditions: Homo sapiens, HT-1376
# Description: SANGER: Inhibition of human HT-1376 cell growth in a cell viability assay.
# [8] = tested on: HT55; format: functional, cell-based, Homo sapiens; conditions: Homo sapiens, HT55;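 also: cell viability readout measuring growth inhibition of human HT55 cells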
# Description: SANGER: Inhibition of human HT55 cell growth in a cell viability assay.
# [9] = tested on: KOSC-2; format: functional, cell-based, Homo sapiens; conditions: Homo sapiens, KOSC-2;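 also: growth inhibition of KOSC-2 cells, read out by a cell viability assay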
# Description: SANGER: Inhibition of human KOSC-2 cell growth in a cell viability assay.
# [10] = tested on: KYSE-150 cell line; format: functional, cell-based, Homo sapiens; conditions: Homo sapiens, KYSE-150;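 also: growth inhibition of human KYSE-150 cells, read out with a cell viability assay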
# Description: SANGER: Inhibition of human KYSE-150 cell growth in a cell viability assay.
# [11] = tested on: KYSE-520 cell line; format: functional, cell-based, Homo sapiens; conditions: Homo sapiens, KYSE-520;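 also: growth inhibition of human KYSE-520 cells, read out with a viability assay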
# Description: SANGER: Inhibition of human KYSE-520 cell growth in a cell viability assay.
# [12] = tested on: KYSE-70 cell line; format: functional, cell-based, Homo sapiens; conditions: Homo sapiens, KYSE-70;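 also: cell viability assay read-out, with IC50 expressing suppression of KYSE-70 cell growth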
# Description: SANGER: Inhibition of human KYSE-70 cell growth in a cell viability assay.
# [13] = tested on: LC4-1; format: functional, cell-based, Homo sapiens; conditions: Homo sapiens, LC4-1;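 also: growth inhibition of LC4-1 cells, read out with a cell viability assay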
# Description: SANGER: Inhibition of human LC4-1 cell growth in a cell viability assay.
# [14] = tested on: LCLC-103H cell line; format: functional, cell-based, Homo sapiens; conditions: Homo sapiens, LCLC-103H
# Description: SANGER: Inhibition of human LCLC-103H cell growth in a cell viability assay.
# [15] = tested on: LU-165; format: functional, cell-based, Homo sapiens; conditions: Homo sapiens, LU-165
# Description: SANGER: Inhibition of human LU-165 cell growth in a cell viability assay.
# [16] = tested on: M14; format: functional, cell-based, Homo sapiens; conditions: Homo sapiens, M14;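 also: growth inhibition of M14 cells, read out with a cell viability assay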
# Description: SANGER: Inhibition of human M14 cell growth in a cell viability assay.
# [17] = tested on: MEL-HO; format: functional, cell-based, Homo sapiens; conditions: Homo sapiens, MEL-HO
# Description: SANGER: Inhibition of human MEL-HO cell growth in a cell viability assay.
# [18] = tested on: NALM-6; format: functional, cell-based, Homo sapiens; conditions: Homo sapiens, NALM-6;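 also: growth inhibition of NALM-6 cells, read out with a cell viability assay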
# Description: SANGER: Inhibition of human NALM-6 cell growth in a cell viability assay.
# [19] = tested on: NCI-H1573; format: functional, cell-based, Homo sapiens; conditions: Homo sapiens, NCI-H1573;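 also: growth inhibition of NCI-H1573 cells, read out with a cell viability assay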
# Description: SANGER: Inhibition of human NCI-H1573 cell growth in a cell viability assay.
# [20] = tested on: NCI-H1792; format: functional, cell-based, Homo sapiens; conditions: Homo sapiens, NCI-H1792;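 also: growth inhibition of human NCI-H1792 cells, read out as cell viability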
# Description: SANGER: Inhibition of human NCI-H1792 cell growth in a cell viability assay.
# [21] = tested on: NCI-H2081; format: functional, cell-based, Homo sapiens; conditions: Homo sapiens, NCI-H2081;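 also: growth inhibition of human NCI-H2081 cells, read out with a cell viability assay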
# Description: SANGER: Inhibition of human NCI-H2081 cell growth in a cell viability assay.
# [22] = tested on: NCI-H2227; format: functional, cell-based, Homo sapiens; conditions: Homo sapiens, NCI-H2227;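 also: growth inhibition of the human cell line, read out with a cell viability assay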
# Description: SANGER: Inhibition of human NCI-H2227 cell growth in a cell viability assay.
# [23] = tested on: OAW-42; format: functional, cell-based, Homo sapiens; conditions: Homo sapiens, OAW-42;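 also: growth inhibition of OAW-42 cells, read out with a cell viability assay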
# Description: SANGER: Inhibition of human OAW-42 cell growth in a cell viability assay.
# [24] = tested on: OE33; format: functional, cell-based, Homo sapiens; conditions: Homo sapiens, OE33;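 also: growth inhibition of human OE33 cells, measured by a cell viability assay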
# Description: SANGER: Inhibition of human OE33 cell growth in a cell viability assay.
# [25] = tested on: OVCAR-3; format: functional, cell-based, Homo sapiens; conditions: Homo sapiens, OVCAR-3;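 also: growth inhibition of human OVCAR-3 cells, determined by a cell viability assay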
# Description: SANGER: Inhibition of human OVCAR-3 cell growth in a cell viability assay.
# [26] = tested on: OVCAR-8; format: functional, cell-based, Homo sapiens; conditions: Homo sapiens, OVCAR-8;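 also: growth inhibition of human OVCAR-8 cells, read out by a cell viability assay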
# Description: SANGER: Inhibition of human OVCAR-8 cell growth in a cell viability assay.
# [27] = tested on: PC-14; format: functional, cell-based, Homo sapiens; conditions: Homo sapiens, PC-14;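 also: cell viability assay measuring inhibition of PC-14 cell growth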
# Description: SANGER: Inhibition of human PC-14 cell growth in a cell viability assay.
# [28] = tested on: PFSK-1; format: functional, cell-based, Homo sapiens; conditions: Homo sapiens, PFSK-1;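 also: cell viability assay measuring how strongly compounds suppress growth of human PFSK-1 cells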
# Description: SANGER: Inhibition of human PFSK-1 cell growth in a cell viability assay.
# [29] = tested on: RPMI-7951; format: functional, cell-based, Homo sapiens; conditions: Homo sapiens, RPMI-7951
# Description: SANGER: Inhibition of human RPMI-7951 cell growth in a cell viability assay.
# [30] = tested on: SCC-9; format: functional, cell-based, Homo sapiens; conditions: Homo sapiens, SCC-9;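 also: Read-out is a cell viability assay, with values giving inhibition of cell growth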
# Description: SANGER: Inhibition of human SCC-9 cell growth in a cell viability assay.
# [31] = tested on: SCLC-21H; format: functional, cell-based, Homo sapiens; conditions: Homo sapiens, SCLC-21H;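 also: growth inhibition of cultured human SCLC-21H cells, read out with a cell viability assay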
# Description: SANGER: Inhibition of human SCLC-21H cell growth in a cell viability assay.
# [32] = tested on: SK-HEP1; format: functional, cell-based, Homo sapiens, SK-HEP-1; conditions: Homo sapiens, SK-HEP1;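 also: cell viability readout used to quantify reduction in proliferation of human SK-HEP-1 cells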
# Description: SANGER: Inhibition of human SK-HEP-1 cell growth in a cell viability assay.
# [33] = tested on: SK-LU-1; format: functional, cell-based, Homo sapiens; conditions: Homo sapiens, SK-LU-1;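 also: cell viability assay measuring growth inhibition of human SK-LU-1 cells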
# Description: SANGER: Inhibition of human SK-LU-1 cell growth in a cell viability assay.
# [34] = tested on: SK-MEL-30; format: functional, cell-based, Homo sapiens; conditions: Homo sapiens, SK-MEL-30;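 also: growth inhibition of SK-MEL-30 cells, determined with a cell viability assay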
# Description: SANGER: Inhibition of human SK-MEL-30 cell growth in a cell viability assay.
# [35] = tested on: SW1088; format: functional, cell-based, Homo sapiens; conditions: Homo sapiens, SW1088;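 also: growth inhibition of human SW1088 cells, read out by a cell viability assay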
# Description: SANGER: Inhibition of human SW1088 cell growth in a cell viability assay.
# [36] = tested on: SW626; format: functional, cell-based, Homo sapiens; conditions: Homo sapiens, SW626;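 also: growth inhibition of SW626 cells, measured with a cell viability assay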
# Description: SANGER: Inhibition of human SW626 cell growth in a cell viability assay.
# [37] = tested on: TCC-SUP; format: functional, cell-based, Homo sapiens; conditions: Homo sapiens, TCC-SUP;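 also: growth inhibition of TCC-SUP cells, read out with a cell viability assay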
# Description: SANGER: Inhibition of human TCCSUP cell growth in a cell viability assay.
# [38] = tested on: AGS; format: functional, cell-based, Homo sapiens; conditions: Homo sapiens, AGS;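 also: growth inhibition of AGS cells, determined with a cell viability assay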
# Description: SANGER: Inhibition of human AGS cell growth in a cell viability assay.
# [39] = tested on: ARH-77; format: functional, cell-based, Homo sapiens; conditions: Homo sapiens, ARH-77;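 also: growth inhibition of ARH-77 cells, read out by a cell viability assay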
# Description: SANGER: Inhibition of human ARH-77 cell growth in a cell viability assay.
# [40] = tested on: BPH-1; format: functional, cell-based, Homo sapiens; conditions: Homo sapiens, BPH-1;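 also: cell viability assay measuring growth inhibition of human BPH-1 cells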
# Description: SANGER: Inhibition of human BPH-1 cell growth in a cell viability assay.
# [41] = tested on: BT-20; format: functional, cell-based, Homo sapiens; conditions: Homo sapiens, BT-20;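 also: cell viability assay measuring suppression of growth in human BT-20 cells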
# Description: SANGER: Inhibition of human BT-20 cell growth in a cell viability assay.
# [42] = tested on: CA46; format: functional, cell-based, Homo sapiens; conditions: Homo sapiens, CA46;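 also: growth inhibition of human CA46 cells, read out by a cell viability assay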
# Description: SANGER: Inhibition of human CA46 cell growth in a cell viability assay.
# [43] = tested on: CAKI-1; format: functional, cell-based, Homo sapiens; conditions: Homo sapiens, CAKI-1;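 also: growth inhibition of CAKI-1 cells, measured by a cell viability assay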
# Description: SANGER: Inhibition of human CAKI-1 cell growth in a cell viability assay.
# [44] = tested on: UO-31; format: functional, cell-based, Homo sapiens; conditions: Homo sapiens, UO-31;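 also: cell viability assay measuring inhibition of cell growth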
# Description: SANGER: Inhibition of human U031 cell growth in a cell viability assay.
# [45] = tested on: UACC-893; format: functional, cell-based, Homo sapiens; conditions: Homo sapiens, UACC-893
# Description: SANGER: Inhibition of human UACC-893 cell growth in a cell viability assay.
# [46] = tested on: WSU-NHL; format: functional, cell-based, Homo sapiens; conditions: Homo sapiens, WSU-NHL;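 also: growth inhibition of human WSU-NHL cells, read out with a cell viability assay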
# Description: SANGER: Inhibition of human WSU-NHL cell growth in a cell viability assay.
# [47] = tested on: CAPAN-1; format: functional, cell-based, Homo sapiens; conditions: Homo sapiens, CAPAN-1;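 also: growth suppression of CAPAN-1 cells, read out by a cell viability assay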
# Description: SANGER: Inhibition of human CAPAN-1 cell growth in a cell viability assay.
structure (smiles),measurement,setting,value
Oc1ccc2ccccc2c1SSc1c(O)ccc2ccccc12,IC50,[1],> 32 µM
same,IC50,[2],> 32 µM
same,IC50,[3],3.25 µM
same,IC50,[4],> 32 µM
same,IC50,[5],> 32 µM
same,IC50,[6],10.3 µM
same,IC50,[7],> 32 µM
same,IC50,[8],> 32 µM
same,IC50,[9],> 32 µM
same,IC50,[10],> 32 µM
same,IC50,[11],> 32 µM
same,IC50,[12],> 32 µM
same,IC50,[13],> 32 µM
same,IC50,[14],18.5 µM
same,IC50,[15],> 32 µM
same,IC50,[16],> 32 µM
same,IC50,[17],> 32 µM
same,IC50,[18],0.977 µM
same,IC50,[19],> 32 µM
same,IC50,[20],> 32 µM
same,IC50,[21],> 32 µM
same,IC50,[22],> 32 µM
same,IC50,[23],> 32 µM
same,IC50,[24],> 32 µM
same,IC50,[25],> 32 µM
same,IC50,[26],> 32 µM
same,IC50,[27],> 32 µM
same,IC50,[28],> 32 µM
same,IC50,[29],> 32 µM
same,IC50,[30],> 32 µM
same,IC50,[31],> 32 µM
same,IC50,[32],> 32 µM
same,IC50,[33],18.9 µM
same,IC50,[34],> 32 µM
same,IC50,[35],> 32 µM
same,IC50,[36],> 32 µM
same,IC50,[37],> 32 µM
same,IC50,[38],> 32 µM
same,IC50,[39],> 32 µM
same,IC50,[40],> 32 µM
same,IC50,[41],> 32 µM
same,IC50,[42],3.66 µM
same,IC50,[43],> 32 µM
same,IC50,[44],> 32 µM
same,IC50,[45],> 32 µM
same,IC50,[46],5.52 µM
same,IC50,[47],> 32 µM
C=C(c1ccc(C(=O)O)cc1)c1cc2c(cc1C)C(C)(C)CCC2(C)C [BEXAROTENE],IC50,[1],> 8 µM
same,IC50,[2],> 8 µM
same,IC50,[3],> 8 µM
same,IC50,[4],> 8 µM
same,IC50,[5],> 8 µM
same,IC50,[6],> 8 µM
same,IC50,[7],> 8 µM
same,IC50,[8],> 8 µM
same,IC50,[9],> 8 µM
same,IC50,[10],> 8 µM
same,IC50,[11],> 8 µM
same,IC50,[12],> 8 µM
same,IC50,[13],> 8 µM
same,IC50,[14],> 8 µM
same,IC50,[15],> 8 µM
same,IC50,[16],> 8 µM
same,IC50,[17],0.531 µM
same,IC50,[18],> 8 µM
same,IC50,[19],> 8 µM
same,IC50,[20],> 8 µM
same,IC50,[21],> 8 µM
same,IC50,[22],> 8 µM
same,IC50,[23],> 8 µM
same,IC50,[24],> 8 µM
same,IC50,[25],> 8 µM
same,IC50,[26],> 8 µM
same,IC50,[27],> 8 µM
same,IC50,[28],> 8 µM
same,IC50,[29],> 8 µM
same,IC50,[30],> 8 µM
same,IC50,[31],> 8 µM
same,IC50,[32],> 8 µM
same,IC50,[33],> 8 µM
same,IC50,[34],> 8 µM
same,IC50,[35],> 8 µM
same,IC50,[36],> 8 µM
same,IC50,[37],> 8 µM
same,IC50,[38],> 8 µM
same,IC50,[39],> 8 µM
same,IC50,[40],> 8 µM
same,IC50,[41],> 8 µM
same,IC50,[42],> 8 µM
same,IC50,[43],> 8 µM
same,IC50,[44],> 8 µM
same,IC50,[45],> 8 µM
same,IC50,[46],> 8 µM
same,IC50,[47],> 8 µM
